Consider one molecule from patent EP2522328A1, “Use of resveratrol and ascorbyl-2-glucoside” (DSM IP Assets B.V., priority 2011, dated 2012).

This assay relates to AZGP1. Nature of the assay: Assessment of gene modulation in normal human epidermal melanocytes (NHEM), RT-qPCR on mRNA (PCR array mQPA H-Melanocyte-64). The note with it: ascorbyl-2-glucoside 1 mg/ml. The class given is cell-based. As for the experimental part: Normal human epidermal melanocytes were cultivated for 24 hours. […] Cells were cultivated for additional 72 hours. All experimental conditions were performed in triplicate. At the end of the cultivation, the cells were harvested and washed with phosphate buffered saline (PBS) solution and immediately frozen at -80 °C. The expression of selected markers was analyzed using RT-qPCR method on mRNA extracted from cells layer for each treatment condition. The differential expression analysis was performed by PCR arrays of the screening format "mQPA H-Melanocyte-64", which focuses on 64 genes selected for their importance in pigmentation and melanocyte biology. Total RNA was extracted from each sample using TRI-Reagent®. The amount and quality of the RNA was evaluated using a lab-on-a-chip Bioanalyzer (Agilent technologies). Potential contaminants traces of DNA were removed […] The incorporation of fluorescence in amplified DNA was measured continuously during the PCR cycles. […] The value selected for RE calculations is the "output point" (Ct) of the fluorescence curve. For a given marker, the highest is the cycle number; the lowest, is the mRNA quantity. The RE value is expressed in arbitrary units (AU) according to the equation: (((1)/(2)))^NC x 10^6 [formula] Where NC is the number of cycles.
In general terms: Quantitative PCR measures a nucleic acid by following its amplification.

Consider `O=C1O[C@H]([C@@H](O)CO)C(O)=C1O[C@H]1O[C@H](CO)[C@@H](O)[C@H](O)[C@H]1O` [Ascorbyl-2-glucoside, 2-O-[…]-D-glucopyranosyl-L-Ascorbic acid], for which the activation at 1000 µg/mL (Homo sapiens, Melanocyte, NHEM cells, 72 hours treatment, resveratrol 5 µg/ml, combination 5 µg/ml + 1 mg/ml, read-out: expression ratio compared to control for the gene AZGP1) is 3%. For the setting “compared to untreated cells, NEHM cells, resveratrol 5 micrograms/ml, combination 5 microg/ml + 1mg/ml”, the “down-regulation of AZGP1” value was “no significant modulation”.
